Data reported in patent US11434267B2, “Peptides having reduced toxicity that stimulate cholesterol efflux” (The Regents of the University of California, priority 2013, dated 2022).
Positions of bridges follow the written chain, without caps; N, C: chain ends. Non-standard residues stand in square brackets, D forms with d. No end group written: not given here. R8 = C=CCCCCCC[C@@](C)(N)C(=O)O; Cit = NC(=O)NCCC[C@H](N)C(=O)O; S5 = C=CCCC[C@](C)(N)C(=O)O

Tested on: not given
Assay: not given
Conditions: scaled values = (raw log(P) + 2.061)/4.484; cited from earlier work
For O=C(O)[C@@H]1CCCN1 [Proline], the Hydrophobicity is listed as 0.711.
For N[C@@H](Cc1c[nH]c2ccccc12)C(=O)O [Tryptophan], the Hydrophobicity is listed as 0.878.
In the case of NCC(=O)O [Glycine], the Hydrophobicity is listed as 0.501.
For C[C@H](N)C(=O)O [Alanine], the Hydrophobicity is given as 0.616.
For C[C@@H](O)[C@H](N)C(=O)O [Threonine], the Hydrophobicity is given as 0.450.
For NCCCC[C@H](N)C(=O)O [Lysine], the Hydrophobicity is given as 0.283.
For N[C@@H](Cc1c[nH]cn1)C(=O)O [Histidine], the Hydrophobicity is listed as 0.165.
In the case of CC[C@H](C)[C@H](N)C(=O)O [Isoleucine], the Hydrophobicity is given as 0.943.
For N[C@@H](CCC(=O)O)C(=O)O [Glutamate], the Hydrophobicity is listed as 0.043.
In the case of N=C(N)NCCC[C@H](N)C(=O)O [Arginine], the Hydrophobicity is listed as 0.000.
In the case of N[C@@H](Cc1ccccc1)C(=O)O [Phenylalanine], the Hydrophobicity is listed as 1.00.
In the case of CSCC[C@H](N)C(=O)O [Methionine], the Hydrophobicity is listed as 0.738.
For CC(C)[C@H](N)C(=O)O [Valine], the Hydrophobicity is given as 0.825.
In the case of N[C@@H](Cc1ccc(O)cc1)C(=O)O [Tyrosine], the Hydrophobicity is given as 0.880.
In the case of NC(=O)C[C@H](N)C(=O)O [Asparagine], the Hydrophobicity is given as 0.236.

Molecular target: T1, ABCA1 (Mus musculus, UniProt P41233)
T1 construct: treated (18 h) with a cAMP analog to induce ABCA1 protein expression; endogenous in cells; host or cells: J774 macrophages
T1 sequence (P41233 whole entry): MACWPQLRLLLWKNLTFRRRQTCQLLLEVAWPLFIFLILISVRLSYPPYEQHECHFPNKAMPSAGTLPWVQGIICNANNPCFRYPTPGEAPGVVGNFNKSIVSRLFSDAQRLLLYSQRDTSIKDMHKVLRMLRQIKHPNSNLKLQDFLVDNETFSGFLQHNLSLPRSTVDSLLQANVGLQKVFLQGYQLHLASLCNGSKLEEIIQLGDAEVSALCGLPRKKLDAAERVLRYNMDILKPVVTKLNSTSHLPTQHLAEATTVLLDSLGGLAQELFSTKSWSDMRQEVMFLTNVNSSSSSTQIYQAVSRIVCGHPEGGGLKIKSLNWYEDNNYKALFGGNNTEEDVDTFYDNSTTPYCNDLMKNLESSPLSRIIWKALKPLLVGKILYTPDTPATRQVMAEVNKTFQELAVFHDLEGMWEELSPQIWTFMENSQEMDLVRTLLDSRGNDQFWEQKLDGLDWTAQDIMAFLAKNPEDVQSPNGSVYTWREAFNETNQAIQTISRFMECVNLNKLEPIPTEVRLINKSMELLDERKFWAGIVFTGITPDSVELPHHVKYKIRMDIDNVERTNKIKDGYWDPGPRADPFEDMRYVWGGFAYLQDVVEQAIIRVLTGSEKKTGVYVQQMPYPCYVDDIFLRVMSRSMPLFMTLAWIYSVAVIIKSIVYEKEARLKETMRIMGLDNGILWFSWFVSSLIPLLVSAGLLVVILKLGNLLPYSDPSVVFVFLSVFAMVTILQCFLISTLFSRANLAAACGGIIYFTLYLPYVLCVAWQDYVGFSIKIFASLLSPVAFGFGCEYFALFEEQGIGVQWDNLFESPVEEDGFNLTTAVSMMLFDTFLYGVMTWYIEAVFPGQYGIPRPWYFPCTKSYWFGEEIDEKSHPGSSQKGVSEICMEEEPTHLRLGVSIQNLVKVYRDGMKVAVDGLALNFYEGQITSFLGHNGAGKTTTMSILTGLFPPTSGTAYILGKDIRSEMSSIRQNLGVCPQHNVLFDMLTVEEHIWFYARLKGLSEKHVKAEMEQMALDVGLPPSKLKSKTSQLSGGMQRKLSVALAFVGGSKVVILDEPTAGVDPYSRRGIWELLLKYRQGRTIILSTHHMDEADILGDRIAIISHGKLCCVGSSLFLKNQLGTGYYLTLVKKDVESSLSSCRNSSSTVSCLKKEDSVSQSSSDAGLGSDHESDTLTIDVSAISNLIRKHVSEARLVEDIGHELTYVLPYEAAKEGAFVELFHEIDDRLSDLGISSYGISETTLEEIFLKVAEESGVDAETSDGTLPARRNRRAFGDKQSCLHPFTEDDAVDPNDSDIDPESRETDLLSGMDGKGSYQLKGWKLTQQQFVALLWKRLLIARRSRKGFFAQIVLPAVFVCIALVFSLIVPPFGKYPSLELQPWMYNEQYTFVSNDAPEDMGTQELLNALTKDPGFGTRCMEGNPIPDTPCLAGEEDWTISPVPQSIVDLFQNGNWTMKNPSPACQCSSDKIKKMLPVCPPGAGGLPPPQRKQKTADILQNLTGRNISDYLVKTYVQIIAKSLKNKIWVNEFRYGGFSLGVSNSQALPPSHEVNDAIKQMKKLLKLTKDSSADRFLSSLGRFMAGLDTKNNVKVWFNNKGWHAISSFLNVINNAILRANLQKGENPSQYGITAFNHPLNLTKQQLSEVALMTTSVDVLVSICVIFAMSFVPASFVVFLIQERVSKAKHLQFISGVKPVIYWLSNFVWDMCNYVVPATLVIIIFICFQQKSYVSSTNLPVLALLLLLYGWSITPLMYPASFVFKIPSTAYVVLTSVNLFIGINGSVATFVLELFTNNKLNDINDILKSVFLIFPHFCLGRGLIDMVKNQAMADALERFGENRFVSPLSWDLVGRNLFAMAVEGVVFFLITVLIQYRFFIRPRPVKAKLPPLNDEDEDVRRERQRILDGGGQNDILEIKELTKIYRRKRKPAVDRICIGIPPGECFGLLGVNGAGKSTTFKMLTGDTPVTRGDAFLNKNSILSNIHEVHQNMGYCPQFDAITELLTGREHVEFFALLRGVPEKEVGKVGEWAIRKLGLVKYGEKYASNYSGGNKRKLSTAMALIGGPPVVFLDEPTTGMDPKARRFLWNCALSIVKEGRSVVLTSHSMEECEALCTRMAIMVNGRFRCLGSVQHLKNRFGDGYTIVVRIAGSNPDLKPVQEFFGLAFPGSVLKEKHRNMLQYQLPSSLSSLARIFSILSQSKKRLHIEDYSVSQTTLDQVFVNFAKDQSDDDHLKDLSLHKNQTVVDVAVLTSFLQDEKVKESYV
Assay: ABCA1-dependent cholesterol efflux from [3H]cholesterol-labeled J774 macrophages with and without cAMP
Type: cell-based
Conditions: cAMP treated J774, dose response, 4 h
From the text: Suitable cholesterol efflux assays are described in, e.g., Bielicki, J. K and Oda, M. N., Biochemistry, 41:2089-2096 (2002); Jia et al., Biochem. Biophys. Res. Common., 297:206-213 (2002). In some embodiments, a polypeptide known to mediate cholesterol efflux (e.g., helix 9/10 of Apo A-I) is used to screen for additional mediators of cholesterol efflux in a cell based assay. For example, cell lines in which cholesterol efflux can be enhanced using a cAMP analog that up-regulates ABCA1 protein expression (e.g., J774 macrophages) can conveniently be used to assess the ability of a polypeptide of the present invention to mediate cholesterol efflux. The cells are incubated with labeled cholesterol (e.g., [^3H]cholesterol) under conditions appropriate for cholesterol uptake by the cells. Thus, cAMP or cAMP analogs (e.g., CPT-cAMP) are incubated with the cells for a suitable time before the initiation of cellular cholesterol efflux, i.e., prior to contacting the cells with a test polypeptide. Measurement of labeled cholesterol appearing in the medium is used to determine the cholesterol efflux mediating activity of the test polypeptide.
Aliphatic analogs of ATI-5261 lacking phenylalanine residues retained potent ABCA1 selective cholesterol efflux activity (FIG. 7). J774 macrophages were labeled (48 h) with [^3H]cholesterol and treated (18 h) with a cAMP analog to induce ABCA1 protein expression; cells incubated in the absence of cAMP (left bars) served as controls. […] Peptides were used at a concentration of 30 μg/ml, which was maximal for promoting cholesterol efflux activity. Panel B—Dependence of cholesterol efflux on the concentration of peptides. […] Results are expressed as the difference in cholesterol efflux (%/4 h) observed using cAMP treated vs. non-treated J774 cells. Values are means±SD, n=3.
For “T5505-9: ATI-5261 analog with L24A; W9L substitutions (EVRSKLEELLAALRELAEELLARAKS; synthetic amphipathic alpha-helix cholesterol efflux peptide T5505-9, LeuATI-5261 analog)”, the “Km for cholesterol efflux” value was 0.58 µg/mL and the “peptide concentration at saturation of cholesterol efflux” value (“peptide concentration at saturation” for short) was roughly 3 µg/mL.
For “T6275-5: citrulline form of LeuATI-5261 with single citrulline14→L substitution (EV[Cit]SKLEEWLAALLELAEELLARLKS) [Peptide T6275-5]”, the “peptide concentration at saturation” value was 3 µg/mL.
For “T7983-11: Y26 analog of T6991-2 (S26→Y for 125I labeling) (EV[Cit]SKLEEWIAAI[Cit]EIAEEILARLKY) [Peptide T7983-11]”, the “peptide concentration at saturation” value was 3 µg/mL.

Molecular target: T1, ABCA1
Assay: as above
Type: cell-based
Conditions: J774, cAMP vs no cAMP; 10 μg/ml lipid-free
With “CS6256A: ATI-5261 with glutamine at positions 3 and 23 and a chemical staple (EVQSKLEEWFAAF[S5]EFAEEF[R8]AQLKS; staple 14-21)” the “ABCA1-dependent cholesterol efflux activity” value was “highly dependent on ABCA1 comparable to ATI-5261”.
With “CS6259: leucine form of ATI-5261 with glutamine at positions 3 and 23 and a chemical staple (EVQSKLEEWLAAL[R8]ELAEEL[S5]AQLKS; staple 14-21)” the “ABCA1-dependent cholesterol efflux activity” value was “highly dependent on ABCA1 comparable to ATI-5261”.
With “CS6257: ATI-5261 with uncharged alanine at positions 3 and 23 and a chemical staple (EVASKLEEWFAAF[S5]EFAEEF[R8]AALKS; staple 14-21)” the “ABCA1-dependent cholesterol efflux activity” value was “highly dependent on ABCA1 comparable to ATI-5261”.
For “T7983-11: Y26 analog of T6991-2 (S26→Y for 125I labeling) (EV[Cit]SKLEEWIAAI[Cit]EIAEEILARLKY) [Peptide T7983-11]”, the “ABCA1-dependent cholesterol efflux activity” value was “functional, mediating high-levels of cholesterol efflux in an ABCA1-dependent manner”.

Tested on: C57Bl/6 mice
Assay: not given
Type: in vivo
Conditions: 300 mg/kg IP, male chow-fed C57Bl/6 mice, 4 and 6 h
Description: The high-dose cytotoxic response of ATI-5261 observed in rat, rabbit and cynomolgus monkey is additionally recapitulated in mice (FIG. 4). Male chow-fed C57bl/6 mice were injected intraperitonelly (IP) with 30 or 300 mg/kg of lipid-fee ATI-5261. Blood was collected via the retro-orbital plexus 4 h after peptide injection and plasma subsequently obtained for measurement of CPK (Panel A) and ALT and AST activities (Panel B, ALT left bars, AST, right bars). Values are means±SD, n=4 mice per group.
This example illustrates that aromatic phenylalanine residues associated with the non-polar surface of ATI-5261 contributed to the majority of the peptide toxicity (FIG. 5). […] Blood was collected via retro-orbital plexus 4 h after injection for isolation of plasma. Levels of plasma CPK (Panel A), ALT (panel B) and AST (Panel C) were determined as described in FIG. 1. Values are means±SD, n=4 mice per group.
The concentrations of plasma lipids in C57Bl/6 mice following administration of the aliphatic analogs of ATI-5261 was also determined. […] All values (mg/dl) are means±SD, n=4, determined at 4 and 6 h post treatment with peptide.
For “T5505-9: ATI-5261 analog with L24A; W9L substitutions (EVRSKLEELLAALRELAEELLARAKS; synthetic amphipathic alpha-helix cholesterol efflux peptide T5505-9, LeuATI-5261 analog)”, the “TG elevating effect (plasma TG, cholesterol)” value (“TG elevating effect” below) was “markedly reduced the increase in plasma CPK and AST as well as TG elevating activity”.
In the case of “EARSKAEEWLAALRELAEELLARAKS [Peptide T5505-12]”, the “TG elevating effect” value is reported as “produced low toxicity and greatly ablated TG elevating effects”.
In the case of “EVRSKLEEWLAALRELAEELAARLKS [Peptide T4883-7]”, the “TG elevating effect” value is reported as “further reduced cytotoxic response and TG elevating effects”.
In the case of “EVRSKLEEWLAALRELAEELLARAKS [Peptide T4883-6]”, the “TG elevating effect” value is reported as “further reduced cytotoxic response and TG elevating effects”.
In the case of “EVRSKLEEWLAALRELAEELLARLKS [Peptide T5055-13]”, the “TG elevating effect” value is reported as “greatly attenuated”.

Same assay, conditions: 300 mg/kg IP, male chow-fed C57Bl/6 mice, 4 h
For “T5594-5: ATI-5261 analog with all lysine residues (R>K substitutions) (EVKSKLEEWFAAFKEFAEEFLAKLKS; synthetic amphipathic alpha-helix cholesterol efflux peptide T5594-5, ATI-5261 analog)”, the “cytotoxic/toxic response (plasma CPK, ALT, AST)” value (“cytotoxic/toxic response” for short) was “displayed cytotoxic and TG elevating activity”.
With “T5554-5: E→Q analog bearing citrulline substitutions, net charge −1 (EV[Cit]SKLQEWFAAF[Cit]EFAQEFLARLKS) [Peptide T5554-5]” the “cytotoxic/toxic response” value was “retained strong toxic (CPK, ALT, and AST) and TG elevating responses”.
In the case of “EVRSKLEEWIAAIREIAEEILARLKS [Peptide T6991-1]”, the “muscle toxicity (plasma CPK activity)” value is reported as “displayed little or no cytotoxic properties related to CPK elevations”.
For “T5554-4: E→Q analog bearing citrulline substitutions (EV[Cit]SKLQEWFAAFREFAEEFLARLKS) [Peptide T5554-4]”, the “cytotoxic/toxic response” value was “retained strong toxic (CPK, ALT, and AST) and TG elevating responses”.
For “T5505-9: ATI-5261 analog with L24A; W9L substitutions (EVRSKLEELLAALRELAEELLARAKS; synthetic amphipathic alpha-helix cholesterol efflux peptide T5505-9, LeuATI-5261 analog)”, the “muscle toxicity (plasma CPK activity)” value was “markedly reduced the increase in plasma CPK and AST as well as TG elevating activity” and the “plasma ALT / AST” value was “markedly reduced the increase in plasma CPK and AST as well as TG elevating activity”.
With “EVRSKLEEWFAAFREFAEEFLARLNS [Peptide T5594-4]” the “muscle toxicity (plasma CPK activity)” value was “greatly reduced muscle toxicity”.
For “EVRSKLQEWFAAFREFAQEFLARLKS [Peptide T5554-1]”, the “cytotoxic/toxic response” value was “produced a large increase in the toxic response”.
For “EARSKAEEWLAALRELAEELLARAKS [Peptide T5505-12]”, the “cytotoxic/toxic response” value was “produced low toxicity and greatly ablated TG elevating effects”.
With “EVNSKLEEWLAALNELAEELLARLKS [Peptide T5766-4]” the “muscle toxicity (plasma CPK activity)” value was “greatly reduced the increase in CPK and TG elevating effects”.
In the case of “EVRSKLEEWLAALRELAEELAARLKS [Peptide T4883-7]”, the “cytotoxic/toxic response” value is reported as “further reduced cytotoxic response and TG elevating effects” and the “muscle toxicity (plasma CPK activity)” value is reported as “sufficient to eliminate the residual muscle toxicity”.
With “EVQSKLEEWLAALQELAEELLARLKS [Peptide T5766-3]” the “muscle toxicity (plasma CPK activity)” value was “greatly reduced the increase in CPK and TG elevating effects”.
For “EVRSKLEEWLAALRELAEELLARAKS [Peptide T4883-6]”, the “cytotoxic/toxic response” value was “further reduced cytotoxic response and TG elevating effects” and the “muscle toxicity (plasma CPK activity)” value was “sufficient to eliminate the residual muscle toxicity”.
For “EVRSKLEEWLAALRELAEELLARLKS [Peptide T5055-13]”, the “muscle toxicity (plasma CPK activity)” value was “residual toxicity”.
For “EVRSKLEEWFAAFREFAEEFLARL [Peptide T5766-5]”, the “cytotoxic/toxic response” value was “appeared to reduce the toxic responses” and the “muscle toxicity (plasma CPK activity)” value was “greatly reduced muscle toxicity”.
In the case of “EARSKAEEWLAALLELAEELLARAKS [Peptide T5211-2]”, the “cytotoxic/toxic response” value is reported as “displayed little or no toxic responses and low TG in plasma”.
